This is an account of results in patent publication US20140357641A1, “IP receptor agonist heterocyclic compounds” (NOVARTIS AG, priority 2012, published 2014).

For orientation: EC50 means the concentration that produces a half-maximal response.

The target in the experiment is T1, IP receptor (Homo sapiens, UniProt P43119).
T1 construct: expressed in transfected cells
The experiment can be described thus: cAMP accumulation in CHO cells stably expressing the IP receptor (CHO-IP), Perkin Elmer AlphaScreen assay. The format is cell-based. As to conditions: agonist activity, 1 hour at room temperature. As to the method: Activity of compounds at the IP receptor (IP receptor) is assessed by measuring cAMP accumulation in CHO cells stably expressing the IP receptor (CHO-IP) using the Perkin Elmer AlphaScreen assay. This technology measures the endogenous production of cAMP, in a non-radioactive luminescence proximity homogenous assay. A biological reaction occurs between streptavidin coated donor beads, biotinylated cAMP and anti-cAMP acceptor beads, bringing the donor and acceptor beads close enough together so that upon excitation a fluorescence signal is produced. On production of endogenous cAMP, competition between the biotinylated cAMP and cellular-derived cAMP causes a reduction in the fluorescent signal. The reduction in signal is proportional to the amount of cAMP being produced, thus it is possible to quantify the amount of cAMP being produced on stimulation with agonist.
Test and reference compounds are prepared at 100× [final] in 100% DMSO, and diluted 1:3 using a Biomek Fx (Beckman Coulter). This is followed by an intermediate dilution to give 5× [final] in assay buffer (HBSS containing 5 mM HEPES, 0.1% (w/v) BSA). 5 μL of 5× [final] test compounds, reference compounds and buffer/DMSO control are then transferred to a 384-well white OptiPlate, containing 20 μL CHO-IP cell suspension (15,000 cells/well, prepared from frozen), and plate is incubated at room temperature for 1 hour. A cAMP standard curve is constructed for each experiment (concentration range of 10000 nM to 0.001 nM, in assay buffer) and 25 μL of each concentration added to the last two columns of the assay plate. The incubation is terminated by the addition of lysis buffer (dH2O; 0.3% (v v^−1) Tween-20) containing 20 units mL^−1 streptavidin coated donor beads and biotinylated cAMP (pre-incubated for 30 minutes) and 20 units mL^−1 anti-cAMP acceptor beads, which are added to the lysis buffer just before addition to the assay plate. The assay plate is then incubated at room temperature in the dark, for 60 minutes with gentle shaking, and read on the Envision plate reader (Perkin Elmer).
The raw data of the reference compounds, test compounds and controls are converted into cAMP concentrations, using the cAMP standard curve, in GraphPadPrism (GraphPad Software Inc). EC50 as well as maximal values of the agonist curves are determined using a 4-parameter logistic equation. The % maximum response values of all test compounds are determined using the top of the treprostinil concentration-response curve.
(In general: Changes in cAMP serve as a functional read-out for many G protein-coupled receptors.)

T1 sequence (P43119 whole entry): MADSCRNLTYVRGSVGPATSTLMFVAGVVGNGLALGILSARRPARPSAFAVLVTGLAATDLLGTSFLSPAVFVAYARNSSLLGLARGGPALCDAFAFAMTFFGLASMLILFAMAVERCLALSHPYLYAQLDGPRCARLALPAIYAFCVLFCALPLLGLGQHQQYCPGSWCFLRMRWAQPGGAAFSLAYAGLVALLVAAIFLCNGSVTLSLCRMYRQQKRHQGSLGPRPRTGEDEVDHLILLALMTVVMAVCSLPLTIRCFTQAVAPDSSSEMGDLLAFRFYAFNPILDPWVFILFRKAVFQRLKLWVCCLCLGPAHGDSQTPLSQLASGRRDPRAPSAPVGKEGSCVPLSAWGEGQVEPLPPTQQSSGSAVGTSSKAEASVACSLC

As to `Cc1ccc(-c2nc3c(nc2-c2ccc(C)cc2)N(CCCCc2noc(=O)[nH]2)CCC3)cc1` [Example 6.2, 3-(4-(2,3-Di-p-tolyl-7,8-dihydropyrido[2,3-b]pyrazin-5(6H)-yl)butyl)-1,2,4-oxadiazol-5(4H)-one], a half-maximal response (EC50) required 14.7 nM.
The molecule `Cc1ccc(-c2nc3c(nc2-c2ccc(C)cc2)N(CCCCCCc2noc(=O)[nH]2)CCC3)cc1` [Example 6, 3-(6-(2,3-Di-p-tolyl-7,8-dihydropyrido[2,3-b]pyrazin-5(6H)-yl)hexyl)-1,2,4-oxadiazol-5(4H)-one] had an EC50 of 28.3 nM.
Then `Cc1ccc(-c2nc3c(nc2-c2ccc(C)cc2)N(CCCCC2SC(=O)NC2=O)CCC3)cc1` (single isomer, unassigned) [1(b), (S)-5-(4-(2,3-di-p-tolyl-7,8-dihydropyrido[2,3-b]pyrazin-5(6H)-yl)butyl)thiazolidine-2,4-dione or (R)-5-(4-(2,3-di-p-tolyl-7,8-dihydropyrido[2,3-b]pyrazin-5(6H)-yl)butyl)thiazolidine-2,4-dione], with 12 nM; and `Cc1ccc(-c2nc3c(nc2-c2ccc(C)cc2)N(CCCC/C=C2/SC(=O)NC2=O)CCC3)cc1` [Example 4, 5-(5-(2,3-Ddi-p-tolyl-7,8-dihydropyrido[2,3-b]pyrazin-5(6H)-yl)pentylidene)thiazolidine-2,4-dione], with 2 nM; and `Cc1ccc(-c2nc3c(nc2-c2ccc(C)cc2)N(CCCCCc2noc(=O)[nH]2)CCC3)cc1` [Example 6.1, 3-(5-(2,3-Di-p-tolyl-7,8-dihydropyrido[2,3-b]pyrazin-5(6H)-yl)pentyl)-1,2,4-oxadiazol-5(4H)-one], with 15.3 nM.
With `Cc1ccc(-c2nc3c(nc2-c2ccc(C)cc2)N(CCCCC2SC(=O)NC2=O)CCC3)cc1` (racemic) [Example 1, rac-5-(4-(2,3-Di-p-tolyl-7,8-dihydropyrido[2,3-b]pyrazin-5(6H)-yl)butyl)thiazolidine-2,4-dione] the figure was 8.91 nM; with `Cc1ccc(-c2nc3c(nc2-c2ccc(C)cc2)N(CCCCC2SC(=O)NC2=O)CCC3)cc1` (single isomer, unassigned) [1(a), (S)-5-(4-(2,3-di-p-tolyl-7,8-dihydropyrido[2,3-b]pyrazin-5(6H)-yl)butyl)thiazolidine-2,4-dione or (R)-5-(4-(2,3-di-p-tolyl-7,8-dihydropyrido[2,3-b]pyrazin-5(6H)-yl)butyl)thiazolidine-2,4-dione], 3.71 nM; with `Cc1ccc(-c2nc3c(nc2-c2ccc(C)cc2)N(CCCCCC2=C(O)CCC2=O)CCC3)cc1` [Example 3, 2-(5-(2,3-Di-p-tolyl-7,8-dihydropyrido[2,3-b]pyrazin-5(6H)-yl)pentyl)-3-hydroxycyclopent-2-enone], 7.68 nM.
Regarding `Cc1ccc(-c2nc3c(nc2-c2ccc(C)cc2)N(CCCCc2cc(O)no2)CCC3)cc1` [Example 8, 5-(4-(2,3-Di-p-tolyl-7,8-dihydropyrido[2,3-b]pyrazin-5(6H)-yl)butyl)isoxazol-3-ol], the EC50 was determined as 34.3 nM.
As for `Cc1ccc(-c2nc3c(nc2-c2ccc(C)cc2)N(CCCCC2=C(O)CCC2=O)CCC3)cc1` [Example 5, 2-(4-(2,3-Ddi-p-tolyl-7,8-dihydropyrido[2,3-b]pyrazin-5(6H)-yl)butyl)-3-hydroxycyclopent-2-enone], the EC50 worked out at 165 nM.
Then `Cc1ccc(-c2nc3c(nc2-c2ccc(C)cc2)N(CCCCC2CC(=O)NO2)CCC3)cc1` (centres unmarked) [Example 7, 5-(4-(2,3-Di-p-tolyl-7,8-dihydropyrido[2,3-b]pyrazin-5(6H)-yl)butyl)isoxazolidin-3-one], with 2.86 nM.
